The results in this text go back to patent US11672964B2, “Bioactive components conjugated to substrates of microneedle arrays” (University of Pittsburgh—Of the Commonwealth System of …, priority 2015, dated 2023).

For one data set, the system named is human skin. The experiment in a line: Apoptosis in human skin at the chosen MNA doxorubicin dose. The settings on record: MNA dose chosen for the tumor study.
The test system of the next data set is B16 melanoma. In words: Treatment of established B16 skin tumors with MNAs. Particulars: MNAs once weekly for three weeks; for survival: combination: long term survival through day 70.
The subject of a further data set is epidermal cells. Particulars: pyramidal CMC-microneedle array, 5 mg/g of CMC, arrays removed after 5 minutes, 72 hours of exposure. As to the method:
Cytoxan® was integrated at a concentration of 5 mg/g of CMC, enabling delivery of approximately about 140 μg per array. This is a therapeutically relevant concentration based on the area of skin targeted, yet well below levels associated with systemic toxicities. Living human skin organ cultures were used to assess the cytotoxicty of Cytoxan®. Cytoxan® was delivered by application of arrays to skin explants as we previously described. Arrays and residual material were removed 5 minutes after application, and after 72 hours of exposure, culture living skin explants were cryo-sectioned and fixed. Apoptosis was evaluated using green fluorescent TUNEL assay (In Situ Cell Death Detection Kit, TMR […], Roche, cat #:11-684-795-910).

Experimental for B16 melanoma: B16 skin tumors were established in normal mice by injection. Visible established cutaneous tumors were treated once weekly for three weeks with MNAs containing either doxorubicin alone, Poly(I:C) alone, or doxorubicin and Poly(I:C) incorporated into the same MNA. […] Tumor growth and survival were measured regularly for the duration of the study.

With `COc1cccc2c1C(=O)c1c(O)c3c(c(O)c1C2=O)C[C@@](O)(C(=O)CO)C[C@@H]3O[C@H]1C[C@H](N)[C@H](O)[C@H](C)O1` [doxorubicin], the “apoptosis and necrosis in human skin” value in the data set with human skin is recorded as “induces apoptosis in human skin without causing necrosis”. In addition, in the data set on B16 melanoma, the tumor growth result was “slowed tumor growth” and the survival was found to be 30%.
With Poly(I:C), in the data set on B16 melanoma, the tumor growth entry is “slowed tumor growth” and the survival turned out to be 50%.
Turning to `O=P1(N(CCCl)CCCl)NCCCO1` (stereo not drawn) [Cytoxan®, cyclophosphamide], in the data set with epidermal cells, the “apoptosis (TUNEL)” value is on record as “extensive apoptosis of epidermal cells”.
